Where “and” joins values, the source holds several entries; their conditions need not be identical. Identical values can stand only once.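 Following 48 hours of exposure in 96-well plates, responses at five concentrations were used to interpolate endpoints linearly. Here, GI50 denotes the concentration required for 50% inhibition of growth. TGI is the concentration that stops growth completely.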
Key:
Assay in all cases: NCI-60 cell line screen, 48 h
CAKI-1 renal = system: CAKI-1 renal
DLD-1 colon = system: DLD-1 colon
HCT-15 colon = system: HCT-15 colon
HOP-92 NSCLC = system: HOP-92 NSCLC
KM12 colon = system: KM12 colon
M14 melanoma = system: M14 melanoma
NCI/ADR-RES ovarian = system: NCI/ADR-RES ovarian
OVCAR-5 ovarian = system: OVCAR-5 ovarian
SK-OV-3 ovarian = system: SK-OV-3 ovarian
SNB-78 CNS = system: SNB-78 CNS

| SMILES | TGI (CAKI-1 renal) | TGI (DLD-1 colon) [µM] | GI50 (HCT-15 colon) [µM] | TGI (HCT-15 colon) | GI50 (HOP-92 NSCLC) [µM] | TGI (HOP-92 NSCLC) | GI50 (KM12 colon) [µM] | TGI (KM12 colon) | GI50 (M14 melanoma) [µM] | TGI (M14 melanoma) [µM] | GI50 (NCI/ADR-RES ovarian) [µM] | TGI (NCI/ADR-RES ovarian) | GI50 (OVCAR-5 ovarian) [µM] | TGI (OVCAR-5 ovarian) | GI50 (SK-OV-3 ovarian) [µM] | TGI (SK-OV-3 ovarian) | TGI (SNB-78 CNS) [µM] |
| --- | --- | --- | --- | --- | --- | --- | --- | --- | --- | --- | --- | --- | --- | --- | --- | --- | --- |
| CC(C)=CCC(OC(=O)C=C(C)C)C1=CC(=O)c2c(O)ccc(O)c2C1=O (centres undefined) | 3.12 µM and 2 µM | 0.674 | 1.07 | 3.22 µM and 1.13 µM | 0.365 | 1.38 µM and 1.29 µM | 6.61 | 23.9 µM and 6.52 µM | 3.51 | 9.57 | 3.68 | 29.5 µM and 3.16 µM | 5.77 | 25.6 µM and 8.83 µM | 21.2 | 49.8 µM and 12.4 µM | 5.88 |
| Cc1c(NC(=S)NC(=O)c2ccc([N+](=O)[O-])cc2)c(=O)n(-c2ccccc2)n1C | > 100 µM | > 100 |  | > 100 µM |  | > 100 µM |  | > 100 µM |  | > 100 |  |  |  | > 100 µM |  | > 100 µM | > 100 |
| COc1ccc(CCc2cc(OC)cc(OC)c2)cc1 | > 100 µM | > 100 |  | > 100 µM |  | > 100 µM |  | > 100 µM |  | > 100 |  |  |  | > 100 µM |  | > 100 µM | > 100 |
| CC(C)(C)C(=CS(=O)/N=C/c1ccccc1)C(C)(C)C (centres undefined) | > 100 µM | > 100 |  | 80.7 µM |  | 51.2 µM |  | > 100 µM |  | > 100 |  |  |  | > 100 µM |  | 69.8 µM | > 100 |

— PubChem BioAssay (NCI)
